Experimental data reported in US20250223560A1, “NOX4 INHIBITOR COMPOSITIONS AND METHODS FOR REGENERATION OF DYSTROPHIC MUSCLE” (FULCRUM THERAPEUTICS, INC., priority 2022, published 2025).
Where two headings read alike, the source gives them in different places.

Key:
[1] = test system: Bone Marrow Derived Mesenchymal Stem Cells, human (BM-MSC); myofibroblast content; assay: Myofibroblast reduction phenotype in TGF-beta-1 fibrogenic differentiation culture (high-content imaging); type: cell-based
Experimental: (§1) Bone Marrow Derived Mesenchymal Stem Cells, human (BM-MSC, ATCC PCS-500-012) were cultured in medium composed of Mesenchymal Stem Cell Basal Medium foe Adipose, Umbilcal and Bone Marrow-derived MSCs (ATCC PCS-400030 and Mesenchymal Stem Cell Growth for Bone Marrow-derived MSCs (ATCC PCS-500-041). Cells were seeded at a density of 15,000 cells/well in a 96-well format.
(§2) To induce fibrogenic differentiation BM-MSCs were cultured in a medium composed by Dulbecco's Modified Eagle Medium, 2% horse serum (HS) (Sigma H1270) and 5-10 ng/ml TGF-beta-1 (PreproTech 100-21). Cells were cultured in basal media for 2 days before being switched to fibrogenic differentiation media for 5 days, after which they were taken down for downstream assays. Compound treatment was added when media was switched to fibrogenic differentiation media, cells were treated with 0.1% DMSO if not receiving compound.
(§3) Cells were fixed in 4% PFA for 10 min at RT. Fixed cells were washed three times in 1×PBS and incubated in permeabilization solution (0.5% Triton X-100 in 1×PBS) for 10 min. Unspecific binding were saturated by incubating samples in blocking solution (5% donkey serum in 1×PBS) for 1 h. The cells were incubated at RT for 1 hour with gentle shaking in the presence of primary antibody against, alpha-smooth muscle actin (1:1000, Sigma™ A5228). The cells were washed three times with 0.05% Tween-20 in 1×PBS and incubated, for 1 hour at RT, with host-specific secondary antibodies in addition to counterstaining for Alexa Fluor Plus 750 Phalloidin (1:2000, Invitrogen™, A30105) and DAPI (1:2000). Primary and secondary antibodies were diluted according to the manufacturer's recommendations in blocking solution+0.1% Triton X-100. Finally, the cells were washed three times with 0.05% Tween-20 in 1×PBS, washed twice with 1×PBS and stored at 4° C. Images were acquired on a Thermo Scientific™ CellInsight™ CX7LED high content analysis (HCA) imaging instrument using a 10× objective. Nine fields per well were captured for quantification.
Columbus™ software (version 2.9.1, Perkin Elmer®) was used for analysis of acquired images. A custom analysis pipeline was constructed to quantify the percentage of myofibroblasts within the well. First, nuclei were segmented using “Method B” and intensity and morphology properties were calculated using standard settings. Second, viable nuclei were identified by gating on nuclei intensity, area, and roundness of the segmented objects. Next, a region of interest was then defined around the selected viable nuclei by expanding the outer boarder by […]. STAR morphology and SER texture properties were calculated within the region of interest for the alpha-smooth muscle actin and phalloidin channels using the following parameters: profile width=4 px, scale=1 px, Kernel normalization. The calculated morphology and texture properties were used to train a linear classifier consisting of two classes, myofibroblasts and mesenchymal stem cells, by selecting >100 objects in each negative control (DMSO) and positive control (fibrogenic differentiation media) conditions. The linear classifier was then applied to the untrained test wells using a batch analysis to calculate the percentage of myofibroblasts within each image using a formula output (myofibroblasts:number of objects/viable nuclei:number of objects)*100. Results were averaged across the nine fields imaged per well.
The initial six NOX4 inhibitors were assessed in replicate experiments for both potency of myofibroblast reducing activity and an associated IC50 for the myofibroblast reduction phenotype was determined (Table 1).

[2] = as described; cited from earlier work
mesenchymal stem cells = assay: Phalloidin (F-actin) / alpha-SMA staining of treated mesenchymal stem cells; type: cell-based, human; settings: for phalloidin (F-actin) staining / α-SMA immunofluorescence and phalloidin (F-actin) staining: 1 μM; for α-SMA immunofluorescence and phalloidin (F-actin) staining: FIG. 15
Experimental: as §1, §2, §3

NOX4 = target: T1, NOX4 (Homo sapiens, UniProt Q9NPH5); settings: cited from earlier work
T1 sequence (Q9NPH5 1-578): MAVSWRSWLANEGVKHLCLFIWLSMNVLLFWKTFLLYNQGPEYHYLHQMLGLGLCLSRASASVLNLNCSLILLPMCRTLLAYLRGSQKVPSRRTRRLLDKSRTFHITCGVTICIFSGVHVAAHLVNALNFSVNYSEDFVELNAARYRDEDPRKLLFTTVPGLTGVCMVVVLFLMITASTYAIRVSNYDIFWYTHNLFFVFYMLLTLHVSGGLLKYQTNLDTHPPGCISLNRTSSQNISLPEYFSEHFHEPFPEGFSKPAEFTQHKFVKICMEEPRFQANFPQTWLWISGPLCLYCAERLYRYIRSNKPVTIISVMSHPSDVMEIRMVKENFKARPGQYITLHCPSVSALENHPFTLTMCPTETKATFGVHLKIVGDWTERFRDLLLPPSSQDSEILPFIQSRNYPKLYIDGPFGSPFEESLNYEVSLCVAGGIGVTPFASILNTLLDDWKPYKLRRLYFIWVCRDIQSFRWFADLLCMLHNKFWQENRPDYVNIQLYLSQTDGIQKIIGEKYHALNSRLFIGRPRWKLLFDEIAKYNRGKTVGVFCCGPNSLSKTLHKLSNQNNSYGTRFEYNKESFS
T1 sequence (P13498 1-195 partner): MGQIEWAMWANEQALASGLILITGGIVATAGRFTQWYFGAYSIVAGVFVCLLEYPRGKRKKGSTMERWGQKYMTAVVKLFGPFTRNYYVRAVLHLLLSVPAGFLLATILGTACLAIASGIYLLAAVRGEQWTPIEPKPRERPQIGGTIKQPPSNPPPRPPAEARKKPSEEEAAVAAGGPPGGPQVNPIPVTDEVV

cells = settings: as described in the art; cited from earlier work
myoblast-FAP co-cultures = settings: 0.1 uM, 3 days of differentiation, vs DMSO
Source text: The impact of NOX4 inhibition on myogenic differentiation in myoblast-FAP co-cultures was investigated using primary myoblasts isolated from wild-type, uninjured mouse muscles and FAPs isolated from cardiotoxin-injured muscles of ROSA26-tdTomato mice (such mice contain cells that constitutively express the tdTomato fluorescent marker). […] Following 3 days of differentiation, cells were fixed in 4% paraformaldehyde (PFA) and stained for myosin heavy chain (MHC; marker of myogenic differentiation).

[3] = Homo sapiens, BMMSC, first experiment, read-out: IC50 Phenotype (myofibroblast reduction)
[4] = reported value, read-out: Reported Potency, IC50
[5] = Homo sapiens, BMMSC, replicate experiment, read-out: IC50 Phenotype Replicate

| SMILES | IC50 [1, 3] [nM] | oral bioavailability [2] | α-SMA immunofluorescence and phalloidin (F-actin) staining (mesenchymal stem cells) | IC50 [1, 5] [nM] | further results |
| --- | --- | --- | --- | --- | --- |
| Cc1c2c(=O)n(-c3ccccc3Cl)[nH]c2cc(=O)n1Cc1ccccn1 [FTX8018] | 149 | orally bioavailable | – | – | – |
| CCCc1c(-c2ccccc2)nn(-c2ccccn2)c1O [FTX7973] | – | – | – | – | IC50 ([1]; first experiment, unit nm [sic], read-out: IC50 Phenotype (myofibroblast reduction)): 638 nM; IC50 ([1]; replicate experiment, unit nm [sic], read-out: IC50 Phenotype Replicate): 781 nM |
| COc1cc(NC(=O)c2ccc3cc(Cl)ccc3c2)c(C(=O)O)cc1C#N [FTX7995] | 8.8 | – | exhibited both α-SMA immunofluorescence and phalloidin (F-actin) staining | 10.9 | phalloidin staining (mesenchymal stem cells; 10 nM): exhibited phalloidin staining; phalloidin staining (mesenchymal stem cells; 100 nM and 1 μM): enhanced phalloidin staining; phalloidin (F-actin) staining (mesenchymal stem cells): significant phalloidin staining; IC50 (NOX4; [4]): 2 nM |
| Cc1ccccc1CCNS(=O)(=O)c1c(Cl)cc(Br)cc1Cl [FTX7981] | 253 | – | exhibited both α-SMA immunofluorescence and phalloidin (F-actin) staining | 342 | IC50 (NOX4; reported, read-out: IC50 NOX4): 300 nM |
| Cc1ccc(N2CCN(Cc3nc(N)nc(Nc4ccc(C)c(C)c4)n3)CC2)cc1 [FTX7983] | – | – | exhibited both α-SMA immunofluorescence and phalloidin (F-actin) staining | – | IC50 ([1]; Homo sapiens, BMMSC, first experiment, unit nm [sic], read-out: IC50 Phenotype (myofibroblast reduction)): 331 nM; IC50 ([1]; Homo sapiens, BMMSC, replicate experiment, unit nm [sic], read-out: IC50 Phenotype Replicate): 401 nM |
| CC(CNS(=O)(=O)c1ccc(C(F)(F)F)cc1)N1CCc2ccccc21 (stereo not drawn) [FTX7974] | 357 | – | exhibited both α-SMA immunofluorescence and phalloidin (F-actin) staining | 333 | phalloidin (F-actin) staining (mesenchymal stem cells): significant phalloidin staining; IC50 (NOX4; [4]): 2000 nM |
| CCOC(=O)c1c(NC(=O)CN2CCN(C(=O)c3ccco3)CC2)sc2c1CCC2 [FTX7971] | 4030 | orally bioavailable | – | 5210 | concentration of described activity in cells (cells): about 5 μM |
| O=c1c2c3n(c(=O)cc2[nH]n1-c1ccccc1Cl)CCCN(Cc1ccccc1)C3 [FTX7990] | 158 | orally bioavailable | – | 149 | Ki (NOX4; reported value, read-out: Reported Potency, Ki): 70 nM; reduction of myofibroblast content (concentration-response) ([1]; treated cells in culture): dose-dependent reduction of myofibroblast content |
| c1ccc(Cn2nnc3c(Sc4nc5ccccc5o4)ncnc32)cc1 [FTX7972] | 889 | – | – | 898 | – |
| c1ccc2c(c1)[I+]c1ccccc1-2 [DPI, diphenyleneiodonium chloride] | – | – | – | – | MHC-positive myocytes (number of cells per mm^2) (myoblast-FAP co-cultures): statistically significant increase; myogenic differentiation of myoblasts (MHC staining) (myoblast-FAP co-cultures): significantly increased |
